Here are results for one compound from article PMC5218480 (PLoS ONE, 2017).

In the test the test system is MV-4-11 cells. The test can be described thus: Gene expression microarray analysis (Affymetrix PrimeView) and GSEA. The test is classed as cell-based, human. Set-up: RFU PODN (11730768_x_at) / Fold change /veh PODN (11730768_x_at) / RFU LINC00158 (11744669_a_at) / Fold change /veh LINC00158 (11744669_a_at) / RFU DUSP10 (11751237_a_at) / Fold change /veh DUSP10 (11751237_a_at) / RFU ID3 (11757404_x_at) / Fold change /veh ID3 (11757404_x_at) / RFU PLEKHG5 (11737974_s_at) / Fold change /veh PLEKHG5 (11737974_s_at) / RFU LRRC4B (11730491_at) / Fold change /veh LRRC4B (11730491_at) / RFU GIMAP4 (11747438_a_at) / Fold change /veh GIMAP4 (11747438_a_at) / RFU KRT8 (11758183_x_at) / Fold change /veh KRT8 (11758183_x_at) / RFU CNN1 (11734310_a_at) / Fold change /veh CNN1 (11734310_a_at) / RFU VPS37D (11726825_at) / Fold change /veh VPS37D (11726825_at) / RFU C10orf10 (11716522_x_at) / Fold change /veh C10orf10 (11716522_x_at) / RFU KIR2DL2 /// KIR2DL4 /// KIR2DL5A /// KIR2DL5B /// KIR2DS1 /// KIR2DS2 /// KIR2DS3 /// KIR2DS4 /// KIR3DL3 /// KIR3DL3 /// KIR3DS1 (11738374_at) / Fold change /veh KIR2DL2 /// KIR2DL4 /// KIR2DL5A /// KIR2DL5B /// KIR2DS1 /// KIR2DS2 /// KIR2DS3 /// KIR2DS4 /// KIR3DL3 /// KIR3DL3 /// KIR3DS1 (11738374_at) / RFU C1QL1 (11718748_at) / Fold change /veh C1QL1 (11718748_at) / RFU TMPRSS4 (11747572_a_at) / Fold change /veh TMPRSS4 (11747572_a_at) / RFU HAMP (11756126_x_at) / Fold change /veh HAMP (11756126_x_at) / RFU RNFT2 (11725882_a_at) / Fold change /veh RNFT2 (11725882_a_at) / RFU NR4A2 (11747474_a_at) / Fold change /veh NR4A2 (11747474_a_at) / RFU ABCC12 (11746883_a_at) / Fold change /veh ABCC12 (11746883_a_at) / RFU TMEM136 (11760407_x_at) / Fold change /veh TMEM136 (11760407_x_at) / RFU CLDN22 /// WWC2 (11732394_at) / Fold change /veh CLDN22 /// WWC2 (11732394_at) / RFU HLA-DPB1 (11760878_x_at) / Fold change /veh HLA-DPB1 (11760878_x_at) / RFU SPINT1 (11716480_a_at) / Fold change /veh SPINT1 (11716480_a_at) / RFU GAP43 (11754022_s_at) / Fold change /veh GAP43 (11754022_s_at) / RFU A4GNT (11735810_at) / Fold change /veh A4GNT (11735810_at) / RFU PRB3 (11715151_x_at) / Fold change /veh PRB3 (11715151_x_at) / RFU TUBB4B (11761932_at) / Fold change /veh TUBB4B (11761932_at) / RFU CAPN14 (11732068_a_at) / Fold change /veh CAPN14 (11732068_a_at) / RFU TMCC2 (11721928_a_at) / Fold change /veh TMCC2 (11721928_a_at) / RFU IRGQ (11745062_a_at) / Fold change /veh IRGQ (11745062_a_at) / RFU FAM174B (11720279_a_at) / Fold change /veh FAM174B (11720279_a_at) / RFU TMPRSS4 (11748680_a_at) / Fold change /veh TMPRSS4 (11748680_a_at) / RFU FAM212B (11763350_a_at) / Fold change /veh FAM212B (11763350_a_at) / RFU PLEKHG5 (11743358_a_at) / Fold change /veh PLEKHG5 (11743358_a_at) / RFU ZSCAN30 (11745921_a_at) / Fold change /veh ZSCAN30 (11745921_a_at) / RFU CMKLR1 (11741424_a_at) / Fold change /veh CMKLR1 (11741424_a_at) / RFU LOC101060620 /// MAPK8IP1 (11723275_at) / Fold change /veh LOC101060620 /// MAPK8IP1 (11723275_at) / RFU SPTSSB (11747773_x_at) / Fold change /veh SPTSSB (11747773_x_at) / RFU PRSS12 (11739890_at) / Fold change /veh PRSS12 (11739890_at) / RFU BIN1 (11741810_x_at) / Fold change /veh BIN1 (11741810_x_at) / RFU WNT11 (11732464_a_at) / Fold change /veh WNT11 (11732464_a_at) / RFU C10orf10 (11716521_a_at) / Fold change /veh C10orf10 (11716521_a_at) / RFU C5orf56 (11738089_at) / Fold change /veh C5orf56 (11738089_at) / RFU CYB561 (11721691_x_at) / Fold change /veh CYB561 (11721691_x_at) / RFU ANKRD19P (11752326_a_at) / Fold change /veh ANKRD19P (11752326_a_at) / RFU OR2T12 /// OR2T33 /// OR2T8 (11738714_s_at) / Fold change /veh OR2T12 /// OR2T33 /// OR2T8 (11738714_s_at) / RFU VCAN (11748164_a_at) / Fold change /veh VCAN (11748164_a_at) / RFU JSRP1 (11732532_at) / Fold change /veh JSRP1 (11732532_at) / RFU KRTAP10-11 (11738290_x_at) / Fold change /veh KRTAP10-11 (11738290_x_at) / RFU MYO3A (11730013_a_at) / Fold change /veh MYO3A (11730013_a_at) / RFU EBF3 (11725865_a_at) / Fold change /veh EBF3 (11725865_a_at) / RFU CAMK2N1 (11719241_x_at) / Fold change /veh CAMK2N1 (11719241_x_at) / RFU C5orf56 (11738088_a_at) / Fold change /veh C5orf56 (11738088_a_at) / RFU OLFML3 (11715873_a_at) / Fold change /veh OLFML3 (11715873_a_at) / RFU LOC100653217 /// NTM (11731650_a_at) / Fold change /veh LOC100653217 /// NTM (11731650_a_at) / RFU MAPK11 (11762145_a_at) / Fold change /veh MAPK11 (11762145_a_at) / RFU FIZ1 (11724087_x_at) / Fold change /veh FIZ1 (11724087_x_at) / RFU OASL (11726364_x_at) / Fold change /veh OASL (11726364_x_at) / RFU SOX15 (11748057_x_at) / Fold change /veh SOX15 (11748057_x_at) / RFU CD79A (11719716_a_at) / Fold change /veh CD79A (11719716_a_at) / RFU HIST1H1D (11736915_at) / Fold change /veh HIST1H1D (11736915_at) / RFU CASKIN2 (11723855_a_at) / Fold change /veh CASKIN2 (11723855_a_at) / RFU LOC730098 (11760151_x_at) / Fold change /veh LOC730098 (11760151_x_at) / RFU OR4N2 (11742367_at) / Fold change /veh OR4N2 (11742367_at) / RFU PRRT2 (11749266_a_at) / Fold change /veh PRRT2 (11749266_a_at) / RFU SNX32 (11753110_a_at) / Fold change /veh SNX32 (11753110_a_at) / RFU CDHR5 (11726645_a_at) / Fold change /veh CDHR5 (11726645_a_at) / RFU RCAN1 (11760418_a_at) / Fold change /veh RCAN1 (11760418_a_at) / RFU FAM167A (11723789_a_at) / Fold change /veh FAM167A (11723789_a_at) / RFU FAM26E (11764081_at) / Fold change /veh FAM26E (11764081_at) / RFU ISYNA1 (11749810_s_at) / Fold change /veh ISYNA1 (11749810_s_at) / RFU ACY1 (11761880_at) / Fold change /veh ACY1 (11761880_at) / RFU 11764098_at / Fold change /veh 11764098_at / RFU SAMD14 (11745864_x_at) / Fold change /veh SAMD14 (11745864_x_at) / RFU NPB (11741838_a_at) / Fold change /veh NPB (11741838_a_at) / RFU TMPRSS6 (11731388_a_at) / Fold change /veh TMPRSS6 (11731388_a_at) / RFU KRTAP10-2 (11738614_at) / Fold change /veh KRTAP10-2 (11738614_at) / RFU ARHGAP8 /// PRR5-ARHGAP8 (11727945_x_at) / Fold change /veh ARHGAP8 /// PRR5-ARHGAP8 (11727945_x_at) / RFU KRTAP5-7 /// NADSYN1 (11734609_at) / Fold change /veh KRTAP5-7 /// NADSYN1 (11734609_at) / RFU RASL12 (11751679_a_at) / Fold change /veh RASL12 (11751679_a_at) / RFU CDKN2B (11736163_a_at) / Fold change /veh CDKN2B (11736163_a_at) / RFU PRF1 (11729649_at) / Fold change /veh PRF1 (11729649_at) / RFU, ZNF638 /// ZNF638-IT1 / Fold change vs veh, ZNF638 /// ZNF638-IT1 / RFU, PANK3 / Fold change vs veh, PANK3 / RFU, SH3YL1 / Fold change vs veh, SH3YL1 / RFU, ZEB2 / Fold change vs veh, ZEB2 / RFU, NRIP1 / Fold change vs veh, NRIP1 / RFU, PTTG1IP / Fold change vs veh, PTTG1IP / RFU, CAPN2 / Fold change vs veh, CAPN2 / RFU, MED14 / Fold change vs veh, MED14 / RFU, SNORA58 / Fold change vs veh, SNORA58 / RFU, C1orf63 / Fold change vs veh, C1orf63 / RFU, LRRFIP1 / Fold change vs veh, LRRFIP1 / RFU, NDUFAF7 / Fold change vs veh, NDUFAF7 / RFU, SLC12A2 / Fold change vs veh, SLC12A2 / RFU, IBTK / Fold change vs veh, IBTK / RFU, ESF1 / Fold change vs veh, ESF1 / Fold change vs veh, TMEM50B / RFU, TAOK1 / Fold change vs veh, TAOK1 / RFU, ACBD3 / Fold change vs veh, ACBD3 / RFU, TMA16 / Fold change vs veh, TMA16 / RFU, RWDD3 / Fold change vs veh, RWDD3 / RFU, BCAT1 / Fold change vs veh, BCAT1 / RFU, EDEM3 / Fold change vs veh, EDEM3 / RFU, TMEM33 / Fold change vs veh, TMEM33 / RFU, WDR75 / Fold change vs veh, WDR75 / RFU, AHCTF1 / Fold change vs veh, AHCTF1 / RFU, TFRC / Fold change vs veh, TFRC / RFU, ZDHHC17 / Fold change vs veh, ZDHHC17 / RFU, NOM1 / Fold change vs veh, NOM1 / RFU, ARL8B / Fold change vs veh, ARL8B / RFU, ZBTB11 / Fold change vs veh, ZBTB11 / RFU, TAMM41 / Fold change vs veh, TAMM41 / RFU, KIAA1704 /// LOC100996395 / Fold change vs veh, KIAA1704 /// LOC100996395 / RFU, ING1 / Fold change vs veh, ING1 / RFU, TRMT61B / Fold change vs veh, TRMT61B / RFU, FUBP3 / Fold change vs veh, FUBP3 / RFU, TP53 / Fold change vs veh, TP53 / RFU, TNKS2 / Fold change vs veh, TNKS2 / RFU, ZFP14 / Fold change vs veh, ZFP14 / RFU, ACTR2 / Fold change vs veh, ACTR2 / RFU, PPP3R1 / Fold change vs veh, PPP3R1 / RFU, PIK3R1 / Fold change vs veh, PIK3R1 / RFU, HNRNPA1 / Fold change vs veh, HNRNPA1 / RFU, RNF170 / Fold change vs veh, RNF170 / RFU, ZNF28 / Fold change vs veh, ZNF28 / RFU, RNGTT / Fold change vs veh, RNGTT / RFU, OGT / Fold change vs veh, OGT / RFU, BRD1 / Fold change vs veh, BRD1 / RFU, MARS / Fold change vs veh, MARS / RFU, ZNF655 / Fold change vs veh, ZNF655 / RFU, FAHD1 / Fold change vs veh, FAHD1 / RFU, BDP1 / Fold change vs veh, BDP1 / RFU, LRRCC1 / Fold change vs veh, LRRCC1 / RFU, ARID1A / Fold change vs veh, ARID1A / RFU, ZNF146 / Fold change vs veh, ZNF146 / RFU, ZNF330 / Fold change vs veh, ZNF330 / RFU, GPN3 / Fold change vs veh, GPN3 / RFU, C9orf123 / Fold change vs veh, C9orf123 / RFU, N4BP2L2 / Fold change vs veh, N4BP2L2 / RFU, ARFIP1 / Fold change vs veh, ARFIP1 / RFU, FAM179B / Fold change vs veh, FAM179B / RFU, BCL10 / Fold change vs veh, BCL10 / RFU, UHRF1BP1L / Fold change vs veh, UHRF1BP1L / RFU, BET1 / Fold change vs veh, BET1 / RFU, CNOT2 / Fold change vs veh, CNOT2 / RFU, ZNF268 / Fold change vs veh, ZNF268 / Fold change vs veh, ZNF507 / RFU, DGCR2 / Fold change vs veh, DGCR2 / RFU, WDSUB1 / Fold change vs veh, WDSUB1 / Fold change vs veh, HSP90B1 /// MIR3652 / RFU, ADSS / Fold change vs veh, ADSS / RFU, GK / Fold change vs veh, GK / RFU, ZNF148 / Fold change vs veh, ZNF148 / RFU, TAF9 / Fold change vs veh, TAF9 / RFU, SLC1A5 / Fold change vs veh, SLC1A5 / RFU, SLMO2 / Fold change vs veh, SLMO2 / RFU, ABCC4 / Fold change vs veh, ABCC4 / RFU, LOC101060439 /// RAP1B / Fold change vs veh, LOC101060439 /// RAP1B / RFU, RFX7 / Fold change vs veh, RFX7 / RFU, GTPBP10 / Fold change vs veh, GTPBP10 / RFU, CNEP1R1 / Fold change vs veh, CNEP1R1 / RFU, BIVM-ERCC5 /// ERCC5 / Fold change vs veh, BIVM-ERCC5 /// ERCC5 / RFU, ILF3 / Fold change vs veh, ILF3 / RFU 11762660_at / Fold change /veh 11762660_at / RFU VCAN (11757783_s_at) / Fold change /veh VCAN (11757783_s_at) / RFU DDX43 (11728927_at) / Fold change /veh DDX43 (11728927_at) / RFU KRT8 (11758188_x_at) / Fold change /veh KRT8 (11758188_x_at) / RFU NKD1 (11759106_at) / Fold change /veh NKD1 (11759106_at) / RFU SRD5A1 (11742802_a_at) / Fold change /veh SRD5A1 (11742802_a_at) / RFU TPSAB1 /// TPSB2 (11721975_s_at) / Fold change /veh TPSAB1 /// TPSB2 (11721975_s_at) / RFU GSTM3 (11746129_a_at) / Fold change /veh GSTM3 (11746129_a_at) / RFU IL23R (11737362_x_at) / Fold change /veh IL23R (11737362_x_at) / RFU TMEM51 (11727254_a_at) / Fold change /veh TMEM51 (11727254_a_at) / RFU PIWIL2 (11732686_x_at) / Fold change /veh PIWIL2 (11732686_x_at) / RFU ORM1 (11744905_x_at) / Fold change /veh ORM1 (11744905_x_at) / RFU CCDC152 (11743942_at) / Fold change /veh CCDC152 (11743942_at) / RFU ECM1 (11717891_a_at) / Fold change /veh ECM1 (11717891_a_at) / RFU IL23R (11748794_a_at) / Fold change /veh IL23R (11748794_a_at) / RFU TNFAIP8L3 (11732012_x_at) / Fold change /veh TNFAIP8L3 (11732012_x_at) / RFU MBOAT4 (11741988_at) / Fold change /veh MBOAT4 (11741988_at) / RFU 11764193_at / Fold change /veh 11764193_at / RFU TMEM53 (11763286_at) / Fold change /veh TMEM53 (11763286_at) / RFU MAGEB2 (11727129_at) / Fold change /veh MAGEB2 (11727129_at) / RFU TMEM200A (11744735_a_at) / Fold change /veh TMEM200A (11744735_a_at) / RFU CCDC152 (11751479_a_at) / Fold change /veh CCDC152 (11751479_a_at) / RFU FAM211A (11726209_a_at) / Fold change /veh FAM211A (11726209_a_at) / RFU RGS16 (11746705_a_at) / Fold change /veh RGS16 (11746705_a_at) / RFU VCAN (11755009_s_at) / Fold change /veh VCAN (11755009_s_at) / RFU RHOB (11743442_s_at) / Fold change /veh RHOB (11743442_s_at) / RFU RGS16 (11720943_a_at) / Fold change /veh RGS16 (11720943_a_at) / RFU RGS16 (11720944_at) / Fold change /veh RGS16 (11720944_at) / RFU, VPS4B / Fold change vs veh, VPS4B / RFU, CREB1 / Fold change vs veh, CREB1 / RFU, DNAJC13 / Fold change vs veh, DNAJC13 / RFU, GNAQ / Fold change vs veh, GNAQ / RFU, CDK5R1 / Fold change vs veh, CDK5R1 / RFU, ZRANB3 / Fold change vs veh, ZRANB3 / RFU, CUL4A / Fold change vs veh, CUL4A / RFU, CCNY / Fold change vs veh, CCNY / RFU, UFL1 / Fold change vs veh, UFL1 / RFU, COG3 / Fold change vs veh, COG3 / RFU, DIAPH2 / Fold change vs veh, DIAPH2 / RFU, SKA2 / Fold change vs veh, SKA2 / RFU, AFF3 / Fold change vs veh, AFF3 / RFU, LMF1 / Fold change vs veh, LMF1 / RFU, IPO11 / Fold change vs veh, IPO11 / RFU, DFFB / Fold change vs veh, DFFB / RFU, FOXP1 / Fold change vs veh, FOXP1 / RFU, CARD8 / Fold change vs veh, CARD8 / RFU, STRN3 / Fold change vs veh, STRN3 / RFU, ADK / Fold change vs veh, ADK / RFU, RASSF2 / Fold change vs veh, RASSF2 / RFU, WIPF1 / Fold change vs veh, WIPF1 / RFU, LARP1B / Fold change vs veh, LARP1B / RFU, RASA1 / Fold change vs veh, RASA1 / RFU, RB1 / Fold change vs veh, RB1 / RFU, PPFIA1 / Fold change vs veh, PPFIA1 / RFU, MAT2A / Fold change vs veh, MAT2A / RFU, CCT5 / Fold change vs veh, CCT5 / RFU, WDR92 / Fold change vs veh, WDR92 / RFU, CUX1 / Fold change vs veh, CUX1 / RFU, TTC7A / Fold change vs veh, TTC7A / RFU, TMEM135 / Fold change vs veh, TMEM135 / RFU, DEPTOR / Fold change vs veh, DEPTOR / RFU, CPM / Fold change vs veh, CPM / RFU, DNAJB6 / Fold change vs veh, DNAJB6 / RFU, CACNA2D3 / Fold change vs veh, CACNA2D3 / RFU, DTX4 / Fold change vs veh, DTX4 / RFU, TFCP2 / Fold change vs veh, TFCP2 / RFU, GMCL1 /// GMCL1P1 / Fold change vs veh, GMCL1 /// GMCL1P1 / RFU, AEBP2 / Fold change vs veh, AEBP2 / RFU, SNHG1 /// SNORD22 /// SNORD25 /// SNORD26 /// SNORD27 /// SNORD28 /// SNORD29 /// SNORD31 / Fold change vs veh, SNHG1 /// SNORD22 /// SNORD25 /// SNORD26 /// SNORD27 /// SNORD28 /// SNORD29 /// SNORD31 / Fold change (Aza/veh), C12orf56 (ProbeSet 11735607_a_at) / Fold change (ACY-1035/veh), C12orf56 (ProbeSet 11735607_a_at) / Fold change (Aza/veh), FGFR1OP (ProbeSet 11751329_s_at) / Fold change (ACY-1035/veh), FGFR1OP (ProbeSet 11751329_s_at) / Fold change (Aza/veh), VPS36 (ProbeSet 11739960_a_at) / Fold change (ACY-1035/veh), VPS36 (ProbeSet 11739960_a_at) / RFU SYPL1 (11715823_x_at) / Fold change /veh SYPL1 (11715823_x_at) / RFU IGFBP7 (11715501_s_at) / Fold change /veh IGFBP7 (11715501_s_at) / RFU REEP3 (11722064_at) / Fold change /veh REEP3 (11722064_at) / RFU IGLL1 (11728026_x_at) / Fold change /veh IGLL1 (11728026_x_at): dose or concentration left out as unconfirmed. The conditions noted are these: ProbeSet 11722022_s_at; LIST D.

For `Nc1ccc(-c2cccs2)cc1NC(=O)c1ccc2c(c1)cc(C1CC1)n2CCN1CCOCC1` [ACY-1035], the “RFU, CDK5R1” value was 47.94 RFU.
